What was measured:
HL-60 [1] = experiment: Cytotoxicity against human HL60 cells assessed as necrosis at 5 uM after 24 hrs by trypan blue staining; type: functional
K562 [2] = experiment: Cytotoxicity against human K562 cells assessed as necrosis at 10 uM after 24 hrs by trypan blue staining; type: functional
K562 [3] = experiment: Cytotoxicity against human K562 cells assessed as necrosis at 10 uM after 48 hrs by trypan blue staining; type: functional
HL-60 [4] = experiment: Cytotoxicity against human HL60 cells assessed as necrosis at 5 uM after 48 hrs by trypan blue staining; type: functional
HL-60 [5] = experiment: Cytotoxicity against human HL60 cells assessed as necrosis at 10 uM after 72 hrs by trypan blue staining; type: functional
HL-60 [6] = experiment: Cytotoxicity against human HL60 cells assessed as necrosis at 1.25 uM after 24 hrs by trypan blue staining; type: functional
K562 [7] = experiment: Cytotoxicity against human K562 cells assessed as necrosis at 2.5 uM after 72 hrs by trypan blue staining; type: functional
HL-60 [8] = experiment: Cytotoxicity against human HL60 cells assessed as necrosis at 10 uM after 48 hrs by trypan blue staining; type: functional
HL-60 [9] = experiment: Cytotoxicity against human HL60 cells assessed as cell viability at >=5 uM after 24 hrs by MTT assay; type: functional, cell-based
HL-60 [10] = experiment: Cytotoxicity against human HL60 cells assessed as necrosis at 1.25 uM after 72 hrs by trypan blue staining; type: functional
HL-60 [11] = experiment: Cytotoxicity against human HL60 cells assessed as necrosis at 5 uM after 72 hrs by trypan blue staining; type: functional
K562 [12] = experiment: Cytotoxicity against human K562 cells assessed as cell viability at >=5 uM after 24 hrs by MTT assay; type: functional, cell-based
K562 [13] = experiment: Cytotoxicity against human K562 cells assessed as necrosis at 5 uM after 48 hrs by trypan blue staining; type: functional
K562 [14] = experiment: Cytotoxicity against human K562 cells assessed as cell viability at <=2.5 uM by MTT assay; type: functional, cell-based; details: TDE = time-dependent effect
HL-60 [15] = experiment: Cytotoxicity against human HL60 cells assessed as cell viability at <=2.5 uM by MTT assay; type: functional, cell-based; details: TDE = time-dependent effect
K562 [16] = experiment: Cytotoxicity against human K562 cells assessed as necrosis at 2.5 uM after 48 hrs by trypan blue staining; type: functional
K562 [17] = experiment: Cytotoxicity against human K562 cells assessed as necrosis at 10 uM after 72 hrs by trypan blue staining; type: functional
HL-60 [18] = experiment: Cytotoxicity against human HL60 cells assessed as necrosis at 2.5 uM after 24 hrs by trypan blue staining; type: functional
K562 [19] = experiment: Cytotoxicity against human K562 cells assessed as necrosis at 5 uM after 24 hrs by trypan blue staining; type: functional
K562 [20] = experiment: Cytotoxicity against human K562 cells assessed as necrosis at 1.25 uM after 24 hrs by trypan blue staining; type: functional
K562 [21] = experiment: Cytotoxicity against human K562 cells assessed as necrosis at 2.5 uM after 24 hrs by trypan blue staining; type: functional
HL-60 [22] = experiment: Cytotoxicity against human HL60 cells assessed as necrosis at 2.5 uM after 72 hrs by trypan blue staining; type: functional
HL-60 [23] = experiment: Cytotoxicity against human HL60 cells assessed as necrosis at 2.5 uM after 48 hrs by trypan blue staining; type: functional
K562 [24] = experiment: Cytotoxicity against human K562 cells assessed as necrosis at 5 uM after 72 hrs by trypan blue staining; type: functional
HL-60 [25] = experiment: Cytotoxicity against human HL60 cells assessed as necrosis at 10 uM after 24 hrs by trypan blue staining; type: functional
K562 [26] = experiment: Cytotoxicity against human K562 cells assessed as necrosis at 1.25 uM after 72 hrs by trypan blue staining; type: functional
HL-60 [27] = experiment: Cytotoxicity against human HL60 cells assessed as necrosis at 1.25 uM after 48 hrs by trypan blue staining; type: functional
K562 [28] = experiment: Cytotoxicity against human K562 cells assessed as necrosis at 1.25 uM after 48 hrs by trypan blue staining; type: functional

Compound: C[N+](C)(C)C[C@H](O)CC(=O)[O-] [LEVOCARNITINE]
- Activity (HL-60 [1]): 1.8%
- Activity (K562 [2]): 2.4%
- Activity (K562 [3]): 11.1%
- Activity (HL-60 [4]): 9.2%
- Activity (HL-60 [5]): 30%
- Activity (HL-60 [6]): 1.4%
- Activity (K562 [7]): 4.7%
- Activity (HL-60 [8]): 9.7%
- Activity (HL-60 [9]; TDE = time-dependent effect): tde
- Activity (HL-60 [10]): 13.6%
- Activity (HL-60 [11]): 25.6%
- Activity (K562 [12]; TDE = time-dependent effect): tde
- Activity (K562 [13]): 8.9%
- Activity (K562 [14]): tde
- Activity (HL-60 [15]): tde
- Activity (K562 [16]): 0%
- Activity (K562 [17]): 11.8%
- Activity (HL-60 [18]): 0%
- Activity (K562 [19]): 0%
- Activity (K562 [20]): 0%
- Activity (K562 [21]): 2.4%
- Activity (HL-60 [22]): 28.4%
- Activity (HL-60 [23]): 7.8%
- Activity (K562 [24]): 14.3%
- Activity (HL-60 [25]): 1.7%
- Activity (K562 [26]): 4.7%
- Activity (HL-60 [27]): 5.3%
- Activity (K562 [28]): 2.5%

Compound: CUPRIC CHLORIDE
- Activity (HL-60 [1]): 86.2%
- Activity (K562 [2]): 100%
- Activity (K562 [3]): 100%
- Activity (HL-60 [4]): 100%
- Activity (HL-60 [5]): 100%
- Activity (HL-60 [6]): 1.4%
- Activity (K562 [7]): 7.5%
- Activity (HL-60 [8]): 100%
- Activity (HL-60 [9]): 0%
- Activity (HL-60 [10]): 26.5%
- Activity (HL-60 [11]): 100%
- Activity (K562 [12]): 0%
- Activity (K562 [13]): 100%
- Activity (K562 [14]): tde
- Activity (HL-60 [15]): tde
- Activity (K562 [16]): 10.8%
- Activity (K562 [17]): 100%
- Activity (HL-60 [18]): 1.5%
- Activity (K562 [19]): 87.5%
- Activity (K562 [20]): 16.3%
- Activity (K562 [21]): 5.1%
- Activity (HL-60 [22]): 22.6%
- Activity (HL-60 [23]): 6.8%
- Activity (K562 [24]): 100%
- Activity (HL-60 [25]): 100%
- Activity (K562 [26]): 3%
- Activity (HL-60 [27]): 10.8%
- Activity (K562 [28]): 4.9%

Reference: ChEMBL document CHEMBL1157460, “Enhanced concentration-dependent cytotoxic effect of the dinuclear copper(II) complex of L-carnitine [Cu2(L-carnitine)2Cl2(H2O)2]Cl2, compared to L-carnitine or copper chloride dihydrate, in human leukemic cell lines” (2008)
